In ChEMBL document CHEMBL3885881, “DrugMatrix”:

Species on record: Rattus norvegicus
Test: DrugMatrix - Regimen: Daily Repeat
Format: toxicity, organism-based, Sprague-Dawley
Design: regimen Daily Repeat, gender Male, age 6-8 weeks
Conditions: in vivo, po, route oral GAVAGE, […]; for POTASSIUM / SODIUM / TOTAL BILIRUBIN / TOTAL PROTEIN / URIC ACID / ALANINE AMINOTRANSFERASE / ALBUMIN / ALKALINE PHOSPHATASE / ASPARTATE AMINOTRANSFERASE / BLOOD UREA NITROGEN / CARBON DIOXIDE / CHLORIDE / CHOLESTEROL / CREATINE PHOSPHOKINASE / CREATININE / GLUCOSE / LACTATE DEHYDROGENASE / LIPASE / PHOSPHORUS: tissue Plasma; for ABSOLUTE BASOPHIL / ABSOLUTE EOSINOPHIL / ABSOLUTE LYMPHOCYTE / ABSOLUTE MONOCYTE / ABSOLUTE SEGMENTED NEUTROPHIL / BASOPHIL / EOSINOPHIL / ERYTHROCYTE COUNT / HEMATOCRIT / HEMOGLOBIN / LEUKOCYTE COUNT / LYMPHOCYTE / MEAN CORPUSCULAR HEMOGLOBIN / MEAN CORPUSCULAR HEMOGLOBIN CONCENTRATION / MEAN CORPUSCULAR VOLUME / MONOCYTE / NEUTROPHIL / NUCLEATED RED BLOOD CELLS / PLATELET COUNT: tissue Blood
[1] = 9 mg/kg, 72 h, dose level M1, time 3 day
[2] = 9 mg/kg, 120 h, dose level M1, time 5 day
[3] = 36 mg/kg, 72 h, dose level High, time 3 day
[4] = 36 mg/kg, 120 h, dose level High, time 5 day

`CS(=O)(=O)OCCCCOS(C)(=O)=O` [BUSULFAN] was tested, and the POTASSIUM [1] was 6.13 MEQ/L, the SODIUM [1] was 143.63 MEQ/L and the “TOTAL BILIRUBIN” value [1] was 0.13 mg/dL. For the same compound, the “TOTAL PROTEIN” value [1] was 5.73 G/DL, the “URIC ACID” value [1] was 1.27 mg/dL and the “ABSOLUTE BASOPHIL” value [2] was 0 CELLS/uL. For the same compound, the “ABSOLUTE EOSINOPHIL” value [2] was 0 CELLS/uL, the “ABSOLUTE LYMPHOCYTE” value [2] was 6323.33 CELLS/uL and the “ABSOLUTE MONOCYTE” value [2] was 60 CELLS/uL. The “ABSOLUTE SEGMENTED NEUTROPHIL” value [2] was 150 CELLS/uL, the BASOPHIL [2] was 0% and the EOSINOPHIL [2] was 0%. The “ERYTHROCYTE COUNT” value [2] was 6.03 x10E6/uL, the HEMATOCRIT [2] was 36.67% and the HEMOGLOBIN [2] was 14.47 G/DL. The “LEUKOCYTE COUNT” value [2] was 6.53 x10E3/uL, the LYMPHOCYTE [2] was 97% and the “MEAN CORPUSCULAR HEMOGLOBIN” value [2] was 24.03 pg. The “MEAN CORPUSCULAR HEMOGLOBIN CONCENTRATION” value [2] was 39.43 G/DL, the “MEAN CORPUSCULAR VOLUME” value [2] was 60.83 fL and the MONOCYTE [2] was 0.67%. For the same compound, the NEUTROPHIL [2] was 2.33%, the “NUCLEATED RED BLOOD CELLS” value [2] was 0 /100WBC and the “PLATELET COUNT” value [2] was 1101.33 x10E3/uL. For the same compound, the “ALANINE AMINOTRANSFERASE” value [2] was 48.67 u/L, the ALBUMIN [2] was 4.4 G/DL and the “ALKALINE PHOSPHATASE” value [2] was 322 u/L. For the same compound, the “ASPARTATE AMINOTRANSFERASE” value [2] was 84.67 u/L, the “BLOOD UREA NITROGEN” value [2] was 8.33 mg/dL and the “CARBON DIOXIDE” value [2] was 33 mmol/L. The CHLORIDE [2] was 99.33 MEQ/L, the CHOLESTEROL [2] was 81.67 mg/dL and the “CREATINE PHOSPHOKINASE” value [2] was 189.67 u/L. The CREATININE [2] was 0.3 mg/dL, the GLUCOSE [2] was 133.33 mg/dL and the “LACTATE DEHYDROGENASE” value [2] was 120 u/L. For the same compound, the LIPASE [2] was 11.33 u/L, the PHOSPHORUS [2] was 9.3 mg/dL and the POTASSIUM [2] was 6.08 MEQ/L. For the same compound, the SODIUM [2] was 145.27 MEQ/L, the “TOTAL BILIRUBIN” value [2] was 0.13 mg/dL and the “TOTAL PROTEIN” value [2] was 6.33 G/DL. The “URIC ACID” value [2] was 0.77 mg/dL, the “ABSOLUTE BASOPHIL” value [3] was 0 CELLS/uL and the “ABSOLUTE EOSINOPHIL” value [3] was 0 CELLS/uL. The “ABSOLUTE LYMPHOCYTE” value [3] was 7116 CELLS/uL, the “ABSOLUTE MONOCYTE” value [3] was 0 CELLS/uL and the “ABSOLUTE SEGMENTED NEUTROPHIL” value [3] was 417.33 CELLS/uL. The BASOPHIL [3] was 0%, the EOSINOPHIL [3] was 0% and the “ERYTHROCYTE COUNT” value [3] was 5.94 x10E6/uL. For the same compound, the HEMATOCRIT [3] was 37.13%, the HEMOGLOBIN [3] was 14.47 G/DL and the “LEUKOCYTE COUNT” value [3] was 7.53 x10E3/uL. The LYMPHOCYTE [3] was 94.33%, the “MEAN CORPUSCULAR HEMOGLOBIN” value [3] was 24.5 pg and the “MEAN CORPUSCULAR HEMOGLOBIN CONCENTRATION” value [3] was 39.07 G/DL. For the same compound, the “MEAN CORPUSCULAR VOLUME” value [3] was 62.67 fL, the MONOCYTE [3] was 0% and the NEUTROPHIL [3] was 5.67%. For the same compound, the “NUCLEATED RED BLOOD CELLS” value [3] was 0 /100WBC, the “PLATELET COUNT” value [3] was 1000.33 x10E3/uL and the “ALANINE AMINOTRANSFERASE” value [3] was 45.33 u/L. The ALBUMIN [3] was 4.4 G/DL, the “ALKALINE PHOSPHATASE” value [3] was 316.33 u/L and the “ASPARTATE AMINOTRANSFERASE” value [3] was 72.67 u/L. For the same compound, the “BLOOD UREA NITROGEN” value [3] was 12 mg/dL, the “CARBON DIOXIDE” value [3] was 33.33 mmol/L and the CHLORIDE [3] was 101.5 MEQ/L. For the same compound, the CHOLESTEROL [3] was 110.33 mg/dL, the “CREATINE PHOSPHOKINASE” value [3] was 312.33 u/L and the CREATININE [3] was 0.1 mg/dL. For the same compound, the GLUCOSE [3] was 170.33 mg/dL, the “LACTATE DEHYDROGENASE” value [3] was 86.33 u/L and the LIPASE [3] was 12.33 u/L. The PHOSPHORUS [3] was 10.73 mg/dL, the POTASSIUM [3] was 5.47 MEQ/L and the SODIUM [3] was 147.05 MEQ/L. The “TOTAL BILIRUBIN” value [3] was 0.17 mg/dL, the “TOTAL PROTEIN” value [3] was 6.3 G/DL and the “URIC ACID” value [3] was 0.6 mg/dL. The “ABSOLUTE BASOPHIL” value [4] was 0 CELLS/uL, the “ABSOLUTE EOSINOPHIL” value [4] was 0 CELLS/uL and the “ABSOLUTE LYMPHOCYTE” value [4] was 3639 CELLS/uL. The “ABSOLUTE MONOCYTE” value [4] was 0 CELLS/uL, the “ABSOLUTE SEGMENTED NEUTROPHIL” value [4] was 61 CELLS/uL and the BASOPHIL [4] was 0%. For the same compound, the EOSINOPHIL [4] was 0%, the “ERYTHROCYTE COUNT” value [4] was 6.14 x10E6/uL and the HEMATOCRIT [4] was 38.4%. The HEMOGLOBIN [4] was 14.8 G/DL, the “LEUKOCYTE COUNT” value [4] was 3.7 x10E3/uL and the LYMPHOCYTE [4] was 98.5%. The “MEAN CORPUSCULAR HEMOGLOBIN” value [4] was 24.15 pg, the “MEAN CORPUSCULAR HEMOGLOBIN CONCENTRATION” value [4] was 38.6 G/DL and the “MEAN CORPUSCULAR VOLUME” value [4] was 62.55 fL. For the same compound, the MONOCYTE [4] was 0%, the NEUTROPHIL [4] was 1.5% and the “NUCLEATED RED BLOOD CELLS” value [4] was 0 /100WBC. The “PLATELET COUNT” value [4] was 1040 x10E3/uL, the “ALANINE AMINOTRANSFERASE” value [4] was 36.5 u/L and the ALBUMIN [4] was 4.35 G/DL. The “ALKALINE PHOSPHATASE” value [4] was 322.5 u/L, the “ASPARTATE AMINOTRANSFERASE” value [4] was 72 u/L and the “BLOOD UREA NITROGEN” value [4] was 7 mg/dL. The “CARBON DIOXIDE” value [4] was 28 mmol/L, the CHLORIDE [4] was 100 MEQ/L and the CHOLESTEROL [4] was 78 mg/dL. The “CREATINE PHOSPHOKINASE” value [4] was 216 u/L, the CREATININE [4] was 0.13 mg/dL and the GLUCOSE [4] was 154 mg/dL. The “LACTATE DEHYDROGENASE” value [4] was 72 u/L, the LIPASE [4] was 10.5 u/L and the PHOSPHORUS [4] was 9.25 mg/dL. The POTASSIUM [4] was 5.75 MEQ/L, the SODIUM [4] was 145.2 MEQ/L and the “TOTAL BILIRUBIN” value [4] was 0.1 mg/dL. For the same compound, the “TOTAL PROTEIN” value [4] was 6.35 G/DL and the “URIC ACID” value [4] was 0.5 mg/dL.
